Measured values: patent publication US6989270B1, “Using polyamide nucleic acid oligomers to engender a biological response” (Mayo Foundation for Medical Education and Research, priority 1997, dated 2006)

Experiments:
[1] = Gel shift assay measuring PNA oligomer in tissue; assay type: in vivo
Procedure: To confirm the presence and measure the amount of PNA in brain after extracranial administration, a sensitive gel shift assay was developed. This assay involves using a radioactively-labeled oligonucleotide having sequence specificity for a PNA oligomer as a probe to detect that PNA oligomer. Briefly, a sample is prepared and incubated with a probe. If the sample contains a PNA oligomer having sequence specificity for the probe, then the probe can bind that PNA oligomer. This bound form of the probe then can be detected and quantified using gel electrophoresis since a probe bound to a PNA oligomer migrates differently than an unbound probe on a gel.
Brain extracts were prepared from either untreated animals or animals treated intraperitoneally with 10 mg/kg of the AS-NTR1-PNA oligomer. For the treated animals, brain tissue was collected 8 hours post treatment. To prepare brain extracts, flash frozen brain tissue (minus the PAG and hypothalamus) were homogenized in 1 mM Tris (pH 4.0), 0.1 mM EDTA at a concentration of 1.5 ml/g wet weight of tissue. This acidic condition can protonate cytosine bases as well as the N-terminal amino group of the PNA oligomer, which presumably increases the solubility of the PNA oligomer and allows the PNA oligomer to be found in an aqueous phase during the later extraction step. Samples were boiled for five minutes. This boiling step can free the bound PNA oligomer from its target sequence, and inactivate nucleases that may interfere with the integrity of the DNA oligonucleotide probe. Then, the samples were spun two to three times at 35,600×g for 10 minutes each to pellet insoluble material and the supernatants collected. Supernatants were extracted with 10 volumes of CHCl3:MeOH (2:1 v/v) to remove glycolipids that may interfere with gel electrophoresis, and spun briefly at 1,000×g to separate phases. For the standard curves using known amounts of a PNA oligomer, the PNA oligomer was added to the supernatant before the CHCl3:MeOH extraction. The supernatants were collected in a fresh tube, lyophilized, and resuspended in 30 to 40 μl of water.
Once prepared, approximately 400 pg of probe was added to each 30 to 40 μl sample. To prepare the probe, a DNA oligonucleotide (Gibco BRL, Gaithersburg, Md.) complementary to the AS-NTR1-PNA oligomer was end-labeled using T4 Polynucleotide Kinase (Gibco BRL) and [Gamma-^32P]ATP or [Gamma-^33P]ATP (New England Nuclear, Boston, Mass.) according to manufacturer's instructions. […]
After adding the probe, the samples were incubated at room temperature for 20 minutes. […] Signal was detected using a Storm860 Phosphoimager (Molecular Dynamics, Sunnyvale, Calif.) and data were analyzed using ImageQuant Software (Molecular Dynamics, Sunnyvale, Calif.). […]

[2] = system: [125I]neurotensin binding sites (NT receptors); experiment: [125I]neurotensin binding assay, small intestine (jejunum and ileum) membranal preparations of treated rats; assay type: in vivo, rat
Procedure: Binding assays were performed using procedures similar to those described elsewhere (Kitabgi P. et al., Peptides 5:917-923 (1984) and Ahmad S. et al., Biochim et Biophys Acta 896:224-238 (1987)).
Table II contains the results from an [^125I]neurotensin binding assay using small intestine (jejunum and ileum) membranal preparations from NTR1-PNA treated and untreated rats. The small intestine tissue was harvested from the rats 1 day after receiving a single i.p. injection of NTR1-PNA oligomers as described above. Untreated rats were used to derive control values for the percent control dpm and percent control receptors (fmol/mg). Thus, the values for untreated rats were set to 100 percent.
In addition to determining the influence of […] NTR1-PNA oligomers on anti-nociception and hypothermia, the effects of these oligomers on NT binding sites were determined using the NT receptor binding assay described in Example 1.

[3] = small intestine, 1 day after single i.p. injection (3 mg/kg)

Substance: NTR1-PNA: 12-mer antisense PNA oligomer to rat NTR1 coding region, 5′-CATTGCTCAAAC-3′ (SEQ ID NO: 1) (all peptide nucleic acid (PNA))
- integrity of PNA oligomer recovered from brain (gel mobility shift) ([1]; 8 hours after i.p. 10 mg/kg): unaltered
- presence of PNA oligomer in brain extracts ([1]; 8 hours after i.p. 10 mg/kg, perfused and non-perfused animals): detected in brain extracts prepared from treated animals
- concentration of PNA oligomer within brain ([1]; 8 hours after intraperitoneal 10 mg/kg, corrected for recovery): 2.4±0.3 ng/whole brain
- presence of PNA oligomer in brain, heart, kidney, liver, spleen and blood ([1]; tissues 2 hours after i.p. 10 mg/kg (perfused), blood 5 minutes after i.v. 10 mg/kg): detected in each tissue
- number of receptors (mean ± SEM in fmol/mg wet wt.) ([2]; Small intestine, 24 hours after single oral 10 mg/kg): Below Detection
- % Control dpm's [2, 3]: 41 % Control
- % Control receptors [2, 3]: 2 % Control
- NT binding sites ([2]; small intestine, 24 hours after oral 10 mg/kg): completely abolished
- fewer [125I]neurotensin binding sites than untreated rats ([2]; small intestine, one day after i.p. treatment): 98%
